Results: article PMC11459959, “Discovery of new acetamide derivatives of 5-indole-1,3,4-oxadiazol-2-thiol as inhibitors of HIV-1 Tat-mediated viral transcription” (Antimicrobial Agents and Chemotherapy, 2024)
Like-named read-outs stand apart in the source and are kept apart here.

Experiments:
Format in all cases: cell-based
[1] = tested on: HIV-1NL4-3 IRES-eGFP-nef+; test: eGFP-encoding HIV-1 infection of TZM-bl cells; conditions: 9, 10, 13 1.5 μM, 20, 21, 22 4 μM, seliciclib 10 µM, triptolide 5 nM, DTG 2 nM, EFV 2 nM, 2 days
Protocol: Fig 4 (A) Comparison of the chemical structures between prominent derivatives (9, 10, and 13) and non-functional derivatives (20, 21 and 22). (B) bl-DTR cells were treated with serial dilutions of each compound upon Dox for 24 h. The activities of F-Luc and R-Luc were determined using the Dual-Glo -Luciferase assay system. (C) TZM-bl cells were infected with the HIV-1NL4-3 strain at an MOI of 1 upon treatment of compounds. At 48 h after infection, the viral infectivity and cell viability were determined as described above (Fig. 1). (D) TZM-bl cells were infected with HIV-1NL4-3 IRES-eGFP virus along with the compound treatment. Two days later, GFP-expressing cells were observed by fluorescence microscopy (100× magnification). […] At 48 h after infection, the β-gal activity indicating viral infectivity was determined using the β-gal Enzyme Assay kit. F-Luc activity and cell viability were determined as described above (Fig. 4C). (C and E) The dose-response curves show the relative activity compared with that of the DMSO vehicle (mean ± SD; n = 3).

HIV-1NL4-3 = test: HIV-1 replication in PBMCs (p24 […]); conditions: for EC50: Human immunodeficiency virus 1, PBMC, 72 h
Protocol: (§1) The p24 level from the cell supernatant was subsequently determined using a p24 […] kit (PerkinElmer). In parallel, the cell viability was determined without viral infection because of the viral cytopathic effect. […] In parallel, cell viability was determined. The data (A and B) are presented as the mean ± SD (n = 3). (C) PBMCs (4 × 10^5) infected with HIV-AD8 at an MOI of 0.1 were treated with 1.5 µM of the compounds or ARVs for 3 days. The levels of p24 and cell viability were subsequently determined. (D) J1.1 cells were cultured with the compounds ([…]) under 50 ng/mL phorbol myristate acetate (PMA) treatment for 2 days. The level of p24 was subsequently determined. (E) J-Lat 6.3 cells were treated with the compounds (1.5 µM) under 1 µg/mL of PMA for 2 days. The GFP-positive cell population was analyzed using flow cytometry. The data are represented as a value relative to the DMSO-treated vehicle (D) and a percent of the GFP^+ cell population (E) as mean ± SD (n = 3).
(§2) The inhibitory effects of the compounds on viral replication were determined with some minor modifications, as previously described ([12], [62]). […] PBMCs (4 × 10^5) pre-activated with PHA-M for 3 days were washed with fresh media to remove excess PHA-M and subsequently infected with HIV-1NL4-3 or HIV-1AD8 or PIs-resistant HIV-1 strains as A3.01 infection. After infection, the infectious media were replaced with fresh media supplemented with international 10 units (IU)/mL of IL-2 and the indicated compounds. At 72 h after infection, the inhibitory effect of the compounds on viral replication was determined by measuring the p24 amount, an HIV capsid protein, using an HIV-1 p24 […] kit (PerkinElmer, Waltham, MA, USA). Cell viability was determined as described above. The inhibitory effects on provirus reversing in J1.1 and J-Lat 6.3 cells were determined as previously described ([12], [41], [63]) with some minor modifications. Briefly, 5 × 10^4 persistently HIV-1-infected J1.1 or J-Lat 6.3 cells were cultured in either the presence or absence of the compounds at a final concentration of 1.5 µM and treated with PMA (50 ng/mL for J1.1 cells, 1 µg/mL for J-Lat 6.3 cells). Two days after treatment, the levels of viral production were determined using p24 […] for J1.1 cells and flow cytometry analysis for GFP-expressing J-Lat 6.3 cells.

Cell viability of PBMCs = conditions: human
Protocol: as §1, §2

[2] = HIV-1NL4-3 MOI 0.1, 3 days, p24, read-out: EC50
[3] = HIV-1NL4-3 MOI 0.1, 3 days, p24, mean ± SD, read-out: EC50
[4] = Table S1, WT virus, 10-fold serial dilution, p24, 3 days, read-out: EC50
[5] = PBMCs, absence of HIV-1 infection, mean ± SD, read-out: CC50

Row | SMILES | inhibition of viral-expressed eGFP signal [1] | SI (CC50/EC50) (HIV-1NL4-3) | EC50 (HIV-1NL4-3; [2]) | CC50 at 3 days (Cell viability of PBMCs) | EC50 (HIV-1NL4-3; [3]) | EC50 (HIV-1NL4-3; [4]) | CC50 at 3 days (Cell viability of PBMCs; [5])
1 | C[C@@H]1CCO[C@H]2Cn3cc(C(=O)NCc4ccc(F)cc4F)c(=O)c(O)c3C(=O)N12 [DTG, dolutegravir, reference compound] | remarkably inhibited | >18,270 | < 1 nM | 18300 ± 580 nM |  |  | 
2 | Cc1[nH]c2ccc(-c3nnc(SCC(=O)N4CCCC4)o3)cc2c1C [Compound 13, 2-((5-(2,3-Dimethyl-1H-indol-5-yl)-1,3,4-oxadiazol-2-yl)thio)-1-(pyrrolidin-1-yl)ethan-1-one] | remarkably inhibited | 282.81 |  | 45200 ± 5690 nM | 160 ± 20 nM | 100 ± 10 nM | 
3 | Cc1[nH]c2ccc(-c3nnc(SCC(=O)N4CCCCC4)o3)cc2c1C [Compound 9, 2-((5-(2,3-Dimethyl-1H-indol-5-yl)-1,3,4-oxadiazol-2-yl)thio)-1-(piperidin-1-yl)ethan-1-one] | remarkably inhibited | 315.14 |  | 44100 ± 3710 nM | 140 ± 10 nM | 100 nM | 
4 | CC(C)[C@]12O[C@H]1[C@@H]1O[C@]13[C@]1(O[C@H]1C[C@H]1C4=C(CC[C@@]13C)C(=O)OC4)[C@@H]2O [triptolide, reference compound] | remarkably inhibited | 11.23 | 16.9 ± 3.75 nM |  |  |  | 190 nM
5 | O=C1Nc2ccc(Cl)cc2[C@@](C#CC2CC2)(C(F)(F)F)O1 [EFV, efavirenz, reference compound] | remarkably inhibited | >29,460 | < 1 nM |  |  |  | 29500 ± 3620 nM
